Data: patent publication US20040058974A1, “Treating fungal infections” (SCHERING CORPORATION, priority 2002, published 2004)
Entries after “also recorded” stand apart in the source; their conditions may differ. Like-named read-outs stand apart in the source and are kept apart here.

Key:
[1] = Open-label 3-way crossover clinical pharmacology study: plasma posaconazole pharmacokinetics in fasted healthy subjects (observed values and one-compartment model); format: in vivo, human; settings: for bioavailability / Tmax / Cmax / Mean Cmin (SD) 48 hours after the initial dose / Increase in bioavailability vs regimen A / Change of estimated AUC(I) relative to regimen A: fasted; for bioavailability: model estimate (SE); for AUC(0-t): read-out: Steady-state AUC(0-24 hr); for Cmax: read-out: Mean Cmax (SD)
From the text: Men and women, 18 to 45 years of age were recruited for the clinical pharmacology study. Subjects were required to be of normal body weight (within 15% of ideal body weight) and generally in good health. Inclusion criteria included normal electrocardiogram (ECG) and laboratory test results, along with negative drug and pregnancy screens; nonlactating women of childbearing potential were required to use a barrier method of contraception during the study. Exclusion criteria included substance abuse or significant food or drug allergy, donation of blood or use of an investigational drug during the previous 90 days, use of any prescription or over-the-counter drugs other than acetaminophen in the previous 2 weeks, or use of alcohol during the previous 48 hours. Also excluded were subjects with a positive HIV, hepatitis B, or hepatitis C test, as were subjects with is a clinically significant systemic infection during the previous 4 weeks. Subjects who smoked ≧10 cigarettes daily were also excluded. This was an open-label, 3-way crossover study. Subjects who met the entry criteria were confined to the study center at least 12 hours prior to dosing and 48 hours after each dosing regimen. Subjects were discharged from the study site for a 1-week washout period between each arm of the study. Following an overnight fast, each subject received posaconazole as an oral suspension (40 mg/mL), using one of 3 dosing regimens: a single dose of 800 mg (regimen A); 2 doses of 400 mg given 12 hours apart (regimen B); or 4 doses of 200 mg given 6 hours apart (regimen C). Subjects were randomly assigned using a computer-generated random code to 1 of 6 treatment schedules (ABC, ACB, BAC, BCA, CAB, CBA). The oral posaconazole suspension was manufactured and supplied by Schering-Plough Research Institute, Kenilworth, N.J., USA. After dosing with an oral dosing syringe, the oral cavity was inspected to ensure that the subject had swallowed the suspension. Subjects remained fasted for 24 hours after the initial dose. During the first 14 hours, water was provided ad libitum and subjects received IV 1,400 mL D5W/0.5 normal saline at approximately 100 mL/hr as a calorie and fluid source. For regimen A, B, and C, blood samples were collected in heparin-containing tubes at baseline (0 hr) and at 2, 4, 5, 6, 8, 10, 12, 16, 24, and 48 hours after the first dose. For regimen B, blood samples were additionally collected at 14, 17, 18, 20, and 22 hours after the first dose. For regimen C, additional blood samples were collected at 11, 14, 17, 18, 20, 22, 23, 26, 28, and 36 hours after the first dose. Each sample was centrifuged within 15 minutes after collection for 10 minutes at 4° C. and 1,500 g. The resultant plasma was frozen (−20° C.) until assayed. Plasma posaconazole concentrations were quantified using a validated high-performance liquid chromatographic (HPLC) assay with a lower limit of quantitation (LOQ) of 5 ng/mL and a linear range of 5.0 to 5000 ng/mL. The observed values were the maximum plasma concentration (Cmax), time of maximum plasma concentration (Tmax), and the trough plasma concentration at 48 hours after the initial dose of posaconazole (Cmin). Based on previous experience in modeling concentration-time posaconazole data and goodness of fit criteria, a one-compartment oral model with a first-order rate of absorption and first-order rate of elimination was used. The intra-subject error was assumed to be additive, defined as, where Ci,j(t) and Gi,j(t) were the measured and predicted concentrations, respectively, for the j^th subject at time t under the i^th regimen. The predicted concentrations Gi,j(t) following treatments B and C were calculated using the principle of superpositioning, with a lag time equal to the dosing interval (B: 12 hours; C: 6 hours). The error term εi,j(t) was assumed to be N(0, σ^2 ε). Differences in exposure following the three dosage regimens were explored by allowing the bioavailability fraction (F) to differ between regimens. […]

[2] = test system: Candida species (including albicans, glabrata, and tropicalis), as well as other opportunistic fungi; settings: in vitro and in vivo studies; cited from earlier work
[3] = Safety and tolerability in the 3-way crossover study (adverse events, vital signs, ECGs, laboratory tests); format: in vivo, human
Description: Physical examinations, vital signs, ECGs, and clinical laboratory tests were conducted at screening and at the end of the study (48 hours after the final dosing regimen). Treatment-emergent adverse events were recorded throughout the study. In addition, vital signs were evaluated prior to drug administration and at 24 and 48 hours after the first dose of each regimen.

[4] = Posaconazole pharmacokinetics in bone marrow transplant (BMT) patients, 200 mg q6h for up to 25 days; format: in vivo, human
Description: The exposures in the fasted healthy volunteers were confirmed in a study of posaconazole pharmacokinetics in bone marrow transplant (BMT) patients.
Upon extrapolation of model parameters to multiple dosing, the population mean AUC(0-24 hr) value following oral administration of 200 mg of posaconazole four times a day, preferably q 6 hr was estimated to be 12.4 mcg·hr/mL, representing an average plasma concentration of 0.5 mcg/mL. These estimates, based on data from healthy fasted volunteers, are in close agreement with pharmacokinetic data obtained from a study of patients undergoing high-dose chemotherapy and a bone marrow transplant who were orally administered posaconazole 200 mg q6 h for up to 25 days. […] These studies combined with other data form the basis for posaconazole dosing regimens in the clinical efficacy trials for posaconazole.

[5] = given with food, rising single dose; cited from earlier work
[6] = single daily dose; cited from earlier work
[7] = 200 mg four times a day, model extrapolated to multiple dosing, healthy fasted volunteers

Average posaconazole plasma concentration ([1]; 200 mg QID oral): greater than 500 ng/mL | Average plasma concentration [1, 7]: 0.5 µg/mL | Population mean AUC(0-24 hr) [1, 7]: 12400 ng·h/mL | Average posaconazole plasma concentration ([1]; 400 mg BID oral): greater than 300 ng/mL | Absorption constant, Ka, estimate ([1]; Table 1, one-compartment model): 0.197 h⁻¹ | Elimination constant, Ke, estimate ([1]; Table 1, one-compartment model): 0.045 h⁻¹ | bioavailability ([1]; both sexes, human, plasma, oral, 200 mg QID vs 800 mg QD, read-out: Bioavailability fraction F3, regimen C relative to regimen A): 320 ± 70% | Tmax ([1]; both sexes, human, plasma, oral, 200 mg, regimen C: 200 mg every 6 h, read-out: Mean Tmax (SD) after the initial dose): 24.2 h | Tmax ([1]; both sexes, human, plasma, oral, 200 mg, regimen C: 200 mg every 6 h, read-out: Tmax after the final dose): 6.2 h | bioavailability ([1]; both sexes, human, plasma, oral, 400 mg BID vs 800 mg QD, read-out: Bioavailability fraction F2, regimen B relative to regimen A): 198 ± 35% | Tmax ([1]; both sexes, human, plasma, oral, 400 mg, regimen B: 400 mg every 12 h, read-out: Mean Tmax (SD) after the initial dose): 16.6 h | Tmax ([1]; both sexes, human, plasma, oral, 400 mg, regimen B: 400 mg every 12 h, read-out: Tmax after the final dose): 4.6 h | Tmax ([1]; both sexes, human, plasma, oral, 800 mg, regimen A: 800 mg single dose, read-out: Mean Tmax (SD) after the initial dose): 7.8 h | Tmax ([1]; both sexes, human, plasma, oral, 800 mg, regimen A: 800 mg single dose, read-out: Tmax after the final dose): 7.8 h | half-life ([1]; both sexes, human, plasma, oral, from absorption rate constant, fasting conditions, read-out: Estimated absorption half-life (converted)): 3.5 h | half-life ([1]; both sexes, human, plasma, oral, from elimination rate constant, read-out: Estimated terminal elimination half-life (converted)): 15 h | AUC ([1]; both sexes, human, plasma, oral, 200 mg QID, fasted healthy subjects, read-out: AUC (exposure)): ~12000 ng·h/mL | Vd/F ([1]; both sexes, human, plasma, oral, one-compartment model, read-out: V/F1 (volume of distribution) estimate): 4580 L | AUC(0-t) ([1]; both sexes, human, plasma, oral, regimen A 800 mg QD, model extrapolated to multiple dosing): 3900 ng·h/mL | AUC(0-t) ([1]; both sexes, human, plasma, oral, regimen B 400 mg BID, model extrapolated to multiple dosing): 7700 ng·h/mL | Cmax ([1]; both sexes, human, plasma, oral, regimen B: 400 mg every 12 h (2 doses)): 225 ng/mL | AUC(0-t) ([1]; both sexes, human, plasma, oral, regimen C 200 mg QID, model extrapolated to multiple dosing): 12400 ng·h/mL | Cmax ([1]; both sexes, human, plasma, oral, regimen C: 200 mg every 6 h (4 doses)): 405 ng/mL | Cmax ([1]; both sexes, human, plasma, regimen A: 800 mg single oral dose): 137 ng/mL | Dose at which oral absorption is saturable ([1]; fasted subjects, suggested by concentration-time curves): 200 mg | Elimination rate constant ([1]; one-compartment model, all regimens): 0.045 h⁻¹ | Absorption rate constant ([1]; one-compartment model, fasting conditions, all regimens): 0.197 h⁻¹ | F1 (Regimen A) bioavailability fraction ([1]; reference, fixed equal to 1, 800 mg single dose): 1.0 | Estimated steady-state average concentration ([1]; regimen A 800 mg QD, model extrapolated to multiple dosing): 162 ng/mL | Mean Cmin (SD) 48 hours after the initial dose ([1]; regimen A: 800 mg single dose): 50 (+/−26) ng/mL | Increase in bioavailability vs regimen A ([1]; regimen B 400 mg BID vs 800 mg single dose): 98% | Estimated steady-state average concentration ([1]; regimen B 400 mg BID, model extrapolated to multiple dosing): 320 ng/mL | Change of estimated AUC(I) relative to regimen A ([1]; regimen B 400 mg every 12 h): doubled | Mean Cmin (SD) 48 hours after the initial dose ([1]; regimen B: 400 mg every 12 h): 96 (+/−46) ng/mL | Increase in bioavailability vs regimen A ([1]; regimen C 200 mg QID vs 800 mg single dose): 220% | Estimated steady-state average concentration ([1]; regimen C 200 mg QID, model extrapolated to multiple dosing): 517 ng/mL | Change of estimated AUC(I) relative to regimen A ([1]; regimen C 200 mg every 6 h): tripled | Mean Cmin (SD) 48 hours after the initial dose ([1]; regimen C: 200 mg every 6 h): 189 (+/−135) ng/mL | Average steady-state plasma concentration ([4]; 200 mg q6h for up to 25 days, high-dose chemotherapy and bone marrow transplant patients): 0.428 µg/mL | AUC ([4]; human, plasma, oral, 200 mg QID, BMT patients, read-out: AUC (exposure)): ~11000 ng·h/mL | AUC(0-t) ([4]; human, plasma, oral, 200 mg q6h for up to 25 days, high-dose chemotherapy and bone marrow transplant patients, read-out: AUC(0-24 hr) at steady state): 10600 ng·h/mL
Compound: CC[C@@H]([C@H](C)O)n1ncn(-c2ccc(N3CCN(c4ccc(OC[C@@H]5CO[C@@](Cn6cncn6)(c6ccc(F)cc6F)C5)cc4)CC3)cc2)c1=O [posaconazole]
Antifungal activity [2]: good activity | Subjects reporting at least 1 adverse event ([3]; 18 subjects, all regimens): 33% | Changes in vital signs, physical examinations, laboratory values, ECGs ([3]; all regimens): no clinically significant changes; also recorded: unchanged relative to baseline | Intensity of adverse events ([3]; all regimens): mild in intensity | Subjects reporting chest pain ([3]; regimen C): 11% | Subjects reporting headache ([3]; regimens A and B): 11% | Safety and tolerability ([3]; total daily dose 800 mg, regardless of dosing regimen): safe and well tolerated | Doses at which absorption saturated [5]: above 800 mg | Increase in oral bioavailability with a high fat meal compared to the fasted state [6]: approximately 4 fold
